Experimental data as given in ChEMBL document CHEMBL2073771, “Dibenzocyclooctadiene lignans: a class of novel inhibitors of multidrug resistance-associated protein 1” (Life Sci, 2006).

Key:
Assay type in all cases: functional, cell-based
[1] = target: T1, Multidrug resistance-associated protein 1 (Homo sapiens, UniProt P33527); assay: TP_TRANSPORTER: inhibition of DNR transport in HL60/ADR cells (overexpression of MRP1)
[2] = target: T1, Multidrug resistance-associated protein 1; assay: TP_TRANSPORTER: inhibition of DNR transport in HL60/MRP cells
[3] = target: T1, Multidrug resistance-associated protein 1; assay: TP_TRANSPORTER: inhibition of VP-16 transport in HL60/ADR cells (overexpression of MRP1)
[4] = target: T1, Multidrug resistance-associated protein 1; assay: TP_TRANSPORTER: inhibition of VCR transport in HL60/ADR cells (overexpression of MRP1)
[5] = target: T1, Multidrug resistance-associated protein 1; assay: TP_TRANSPORTER: inhibition of VP-16 transport in HL60/MRP cells
[6] = target: T1, Multidrug resistance-associated protein 1; assay: TP_TRANSPORTER: inhibition of VCR transport in HL60/MRP cells

T1 sequence (P33527 whole entry): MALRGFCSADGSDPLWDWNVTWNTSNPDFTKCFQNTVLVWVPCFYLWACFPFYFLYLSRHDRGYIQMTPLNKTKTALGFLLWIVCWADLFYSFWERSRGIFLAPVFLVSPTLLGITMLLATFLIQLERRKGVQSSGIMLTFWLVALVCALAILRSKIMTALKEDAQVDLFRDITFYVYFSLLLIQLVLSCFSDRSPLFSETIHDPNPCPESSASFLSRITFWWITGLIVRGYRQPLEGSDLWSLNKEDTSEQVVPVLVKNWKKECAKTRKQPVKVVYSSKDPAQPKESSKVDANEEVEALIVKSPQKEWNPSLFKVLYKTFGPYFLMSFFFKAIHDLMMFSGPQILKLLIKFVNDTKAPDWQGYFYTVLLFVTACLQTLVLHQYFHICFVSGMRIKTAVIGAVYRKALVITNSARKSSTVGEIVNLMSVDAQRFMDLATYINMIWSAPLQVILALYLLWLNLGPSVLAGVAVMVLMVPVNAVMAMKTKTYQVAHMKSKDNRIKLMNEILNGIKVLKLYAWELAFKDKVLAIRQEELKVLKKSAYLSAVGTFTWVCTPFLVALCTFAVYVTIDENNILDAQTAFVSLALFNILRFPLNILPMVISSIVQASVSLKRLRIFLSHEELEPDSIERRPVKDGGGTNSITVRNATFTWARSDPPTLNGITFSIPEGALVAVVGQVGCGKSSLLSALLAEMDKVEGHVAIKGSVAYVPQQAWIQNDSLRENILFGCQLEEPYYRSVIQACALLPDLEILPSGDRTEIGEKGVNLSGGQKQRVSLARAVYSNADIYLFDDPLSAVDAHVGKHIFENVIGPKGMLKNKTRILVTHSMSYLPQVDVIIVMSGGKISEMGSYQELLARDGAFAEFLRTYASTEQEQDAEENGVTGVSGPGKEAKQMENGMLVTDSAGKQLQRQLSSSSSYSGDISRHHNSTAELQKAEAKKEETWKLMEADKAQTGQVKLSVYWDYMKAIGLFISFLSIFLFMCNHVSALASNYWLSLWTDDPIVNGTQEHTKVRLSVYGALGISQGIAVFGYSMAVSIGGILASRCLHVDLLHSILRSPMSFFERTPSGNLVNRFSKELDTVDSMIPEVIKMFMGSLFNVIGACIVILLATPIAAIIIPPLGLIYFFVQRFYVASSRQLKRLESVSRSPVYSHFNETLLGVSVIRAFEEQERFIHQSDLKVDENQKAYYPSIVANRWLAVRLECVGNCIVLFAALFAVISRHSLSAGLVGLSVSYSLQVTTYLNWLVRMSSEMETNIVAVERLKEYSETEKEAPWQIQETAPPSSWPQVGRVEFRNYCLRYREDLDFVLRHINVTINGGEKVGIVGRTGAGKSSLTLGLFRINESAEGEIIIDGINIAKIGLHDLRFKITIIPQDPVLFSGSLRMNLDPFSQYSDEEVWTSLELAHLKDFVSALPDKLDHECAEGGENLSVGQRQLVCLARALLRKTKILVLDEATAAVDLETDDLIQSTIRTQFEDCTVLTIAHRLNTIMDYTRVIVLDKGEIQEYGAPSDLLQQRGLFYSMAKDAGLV

| IC50 [1] | IC50 [2] | IC50 [3] | IC50 [4] | IC50 [5] | IC50 [6] | Structure (SMILES) |
| --- | --- | --- | --- | --- | --- | --- |
| 122 nM | 182 nM | 7770 nM | 0.96 nM | 2760 nM | 9.36 nM | COc1cc2c(c(OC)c1OC)-c1c(cc3c(c1OC)OCO3)C[C@H](C)[C@@](C)(O)C2 [GOMISIN A] |
| 142 nM | 154 nM | 4890 nM | 9.84 nM | 2340 nM | 6.96 nM | COc1cc2c(c(OC)c1OC)-c1c(cc(OC)c(OC)c1OC)C[C@H](C)[C@H](C)C2 [SCHISANDRIN A] |
| 140 nM | 205 nM | 4190 nM | 1.25 nM | 2250 nM | 9.49 nM | COc1cc2c(c(OC)c1OC)-c1c(cc3c(c1OC)OCO3)CC(C)C(C)C2 (centres undefined) [SCHISANDRIN B] |
| 125 nM | 217 nM | 7250 nM | 1.16 nM | 3240 nM | 8.09 nM | COc1cc2c(c(OC)c1OC)-c1c(cc(OC)c(OC)c1OC)C[C@](C)(O)[C@@H](C)C2 [SCHIZANDRIN] |
